Experimental data reported in the CheMixHub ionic liquid set.
± gives the uncertainty stated by the source.

Assay: xn = mol fraction of the nth substance listed

CC(C)O + CCCC[n+]1ccn(C)c1.F[B-](F)(F)F
101 kPa, x2 = 0
Details	viscosity [mPa·s]
293.15 K	2.42 ± 0.36
298.15 K	2.08 ± 0.31
303.15 K	1.8 ± 0.27
308.15 K	1.56 ± 0.23
313.15 K	1.36 ± 0.2
318.15 K	1.19 ± 0.18
323.15 K	1.05 ± 0.16

CCCC[n+]1ccn(C)c1.[Cl-] + CCCC[n+]1ccn(C)c1.F[B-](F)(F)F
Details	viscosity [mPa·s]
293 K, 101 kPa, x1 = 0.1015	201 ± 12

ClC(Cl)Cl + CCCC[n+]1ccn(C)c1.F[B-](F)(F)F
298.15 K, 101 kPa
Details	electrical conductivity [S/m]	viscosity [mPa·s]
x1 = 0.1079	0.245 ± 0.029	92 ± 24
x1 = 0.2033	0.29 ± 0.035	73 ± 12
x1 = 0.3071	0.347 ± 0.042	55.5 ± 2.8
x1 = 0.4018	0.411 ± 0.049	40.8 ± 4.1
x1 = 0.5052	0.498 ± 0.06	27.1 ± 2.7
x1 = 0.6091	0.586 ± 0.07	16.3 ± 1.7
x1 = 0.7028	0.676 ± 0.081	9.2 ± 1
x1 = 0.7825	0.668 ± 0.08	5.01 ± 0.65
x1 = 0.8491	0.54 ± 0.065	2.99 ± 0.4

CCCC[n+]1ccn(C)c1.O=S(=O)([O-])C(F)(F)F + CCCC[n+]1ccn(C)c1.F[P-](F)(F)(F)(F)F
100 kPa
Details	viscosity [mPa·s]
293.15 K, x2 = 0.006063	91.5 ± 2.5
293.15 K, x2 = 0.15	109.5 ± 3.5
293.15 K, x2 = 0.1999	116.6 ± 3.9
293.15 K, x2 = 0.7	218 ± 11
298.15 K, x2 = 0.08059	83.4 ± 2.2
303.15 K, x2 = 0.08059	69.3 ± 1.6
303.15 K, x2 = 0.1	70.8 ± 1.6
308.15 K, x2 = 0.15	60 ± 1.3
308.15 K, x2 = 0.1999	63.1 ± 1.4
313.15 K, x2 = 0.1999	50.6 ± 1
313.15 K, x2 = 0.5002	66.8 ± 1.5
313.15 K, x2 = 0.7995	88.2 ± 2.4
318.15 K, x2 = 0.15	40 ± 0.87
318.15 K, x2 = 0.1999	41.75 ± 0.91
318.15 K, x2 = 0.3	45.51 ± 0.99
318.15 K, x2 = 0.8997	76.3 ± 1.9
323.15 K, x2 = 0.3	38.24 ± 0.83
323.15 K, x2 = 0.8997	62.3 ± 1.4
328.15 K, x2 = 0.15	29.81 ± 0.65
328.15 K, x2 = 0.1999	30.97 ± 0.68

F[P-](F)(F)(F)(F)F.[Li+] + CCCC[n+]1ccn(C)c1.N#C[N-]C#N
electrical conductivity [S/m], 101 kPa
Details	x2 = 0.8823	x2 = 0.8953	x2 = 0.9172	x2 = 0.9531	x2 = 0.9799
288.15 K	–	0.307 ± 0.031	0.39 ± 0.039	0.482 ± 0.049	0.585 ± 0.059
298.15 K	0.488 ± 0.049	0.522 ± 0.053	0.633 ± 0.064	0.771 ± 0.078	0.909 ± 0.091
333.15 K	1.63 ± 0.16	1.68 ± 0.17	1.97 ± 0.2	2.24 ± 0.22	2.58 ± 0.26

CCCCO + CCCC[n+]1ccn(C)c1.N#C[S-]
101 kPa, x1 = 1
Details	viscosity [mPa·s]
328.15 K	1.25 ± 0.01
348.15 K	0.846 ± 0.001

[Cl-].[Li+] + CCCC[n+]1ccn(C)c1.N#C[S-] + CN1CCCC1=O
298.15 K, 101 kPa
Details	viscosity [mPa·s]
x2 = 0, x1 = 0.03819	2.63 ± 0.035
x2 = 0, x1 = 0.07228	3.56 ± 0.046
x2 = 0, x1 = 0.1042	4.958 ± 0.064

CCCCO + CCCC[n+]1ccn(C)c1.O=S(=O)([N-]S(=O)(=O)C(F)(F)F)C(F)(F)F
Details	viscosity [mPa·s]
298 K, 100 kPa, x2 = 0	2.578 ± 0.018

CCCC[n+]1ccn(C)c1.COP(=O)([O-])OC + CCCC[n+]1ccn(C)c1.O=S(=O)([N-]S(=O)(=O)C(F)(F)F)C(F)(F)F
Details	viscosity [mPa·s]
288.15 K, 100 kPa, x2 = 0	1455 ± 96

O=C1CCCO1 + CCCC[n+]1ccn(C)c1.O=S(=O)([N-]S(=O)(=O)C(F)(F)F)C(F)(F)F
100 kPa
Details	electrical conductivity [S/m]	viscosity [mPa·s]
293.15 K, x1 = 0.2992	0.457 ± 0.014	29.86 ± 0.63
293.15 K, x1 = 0.8496	1.39 ± 0.042	–
293.15 K, x2 = 0.0151	0.411 ± 0.013	–
298.15 K, x1 = 0.5021	0.744 ± 0.022	14.84 ± 0.31
303.15 K, x1 = 0.2992	0.642 ± 0.019	20.99 ± 0.44
308.15 K, x1 = 0.5979	1.27 ± 0.038	8.18 ± 0.17
308.15 K, x1 = 0.7999	1.81 ± 0.054	4.12 ± 0.09
308.15 K, x1 = 0.8496	1.85 ± 0.055	–
308.15 K, x1 = 1	0.001 ± 0.001	1.52 ± 0.03
313.15 K, x1 = 0.1984	0.753 ± 0.023	18.48 ± 0.39
313.15 K, x1 = 0.5979	1.45 ± 0.043	7.26 ± 0.15
313.15 K, x1 = 0.95	1.42 ± 0.043	–
313.15 K, x1 = 1	0.001 ± 0.001	1.42 ± 0.03
313.15 K, x2 = 0.0151	0.542 ± 0.016	–
318.15 K, x1 = 0.7999	2.15 ± 0.065	3.44 ± 0.07
318.15 K, x1 = 0.8496	2.17 ± 0.065	–
318.15 K, x1 = 0.8995	2.02 ± 0.061	2.35 ± 0.05
318.15 K, x1 = 1	0.001 ± 0.001	1.35 ± 0.03
323.15 K, x1 = 0.7999	2.37 ± 0.071	3.11 ± 0.07
323.15 K, x1 = 1	0.002 ± 0.001	1.3 ± 0.03
